{"source": "paper PMC4076210", "about": "“Discovery of Novel AKT Inhibitors with Enhanced Anti-Tumor Effects in Combination with the MEK Inhibitor” (PLoS ONE, 2014)", "assay_type_in_all_cases": "biochemical", "key": {"[1]": {"molecular_target": "PKCθ (Homo sapiens, UniProt Q04759)", "test": "Kinase IC50 assay"}, "[2]": {"molecular_target": "PKCη (Homo sapiens, UniProt P24723)", "sequence (P24723 whole entry)": "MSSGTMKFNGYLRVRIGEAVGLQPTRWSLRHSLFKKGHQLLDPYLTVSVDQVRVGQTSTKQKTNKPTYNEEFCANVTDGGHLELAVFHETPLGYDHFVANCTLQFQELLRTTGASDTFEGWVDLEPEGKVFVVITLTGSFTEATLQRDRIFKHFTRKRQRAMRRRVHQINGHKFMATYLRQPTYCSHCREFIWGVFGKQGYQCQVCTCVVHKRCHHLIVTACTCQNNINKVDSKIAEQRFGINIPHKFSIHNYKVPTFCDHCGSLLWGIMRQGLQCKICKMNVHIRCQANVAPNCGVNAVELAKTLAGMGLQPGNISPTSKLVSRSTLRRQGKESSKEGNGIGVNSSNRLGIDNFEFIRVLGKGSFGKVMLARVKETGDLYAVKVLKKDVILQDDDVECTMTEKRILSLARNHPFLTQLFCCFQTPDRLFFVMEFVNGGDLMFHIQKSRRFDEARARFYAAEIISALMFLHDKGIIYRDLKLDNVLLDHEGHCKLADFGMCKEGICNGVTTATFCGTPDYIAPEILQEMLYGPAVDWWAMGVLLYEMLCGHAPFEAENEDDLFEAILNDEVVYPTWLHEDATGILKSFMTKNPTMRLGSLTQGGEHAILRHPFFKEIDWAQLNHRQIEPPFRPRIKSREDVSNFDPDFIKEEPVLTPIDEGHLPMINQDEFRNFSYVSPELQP", "test": "Kinase IC50 assay"}, "[3]": {"molecular_target": "T1, eEF-2K(h) (Homo sapiens, UniProt O00418)", "T1 construct": "purchased Millipore KinaseProfiler", "test": "Kinase panel"}, "[4]": {"molecular_target": "T2, PKCμ(h) (Homo sapiens, UniProt Q15139)", "T2 construct": "purchased Millipore KinaseProfiler", "T2 sequence (Q15139 1-912)": "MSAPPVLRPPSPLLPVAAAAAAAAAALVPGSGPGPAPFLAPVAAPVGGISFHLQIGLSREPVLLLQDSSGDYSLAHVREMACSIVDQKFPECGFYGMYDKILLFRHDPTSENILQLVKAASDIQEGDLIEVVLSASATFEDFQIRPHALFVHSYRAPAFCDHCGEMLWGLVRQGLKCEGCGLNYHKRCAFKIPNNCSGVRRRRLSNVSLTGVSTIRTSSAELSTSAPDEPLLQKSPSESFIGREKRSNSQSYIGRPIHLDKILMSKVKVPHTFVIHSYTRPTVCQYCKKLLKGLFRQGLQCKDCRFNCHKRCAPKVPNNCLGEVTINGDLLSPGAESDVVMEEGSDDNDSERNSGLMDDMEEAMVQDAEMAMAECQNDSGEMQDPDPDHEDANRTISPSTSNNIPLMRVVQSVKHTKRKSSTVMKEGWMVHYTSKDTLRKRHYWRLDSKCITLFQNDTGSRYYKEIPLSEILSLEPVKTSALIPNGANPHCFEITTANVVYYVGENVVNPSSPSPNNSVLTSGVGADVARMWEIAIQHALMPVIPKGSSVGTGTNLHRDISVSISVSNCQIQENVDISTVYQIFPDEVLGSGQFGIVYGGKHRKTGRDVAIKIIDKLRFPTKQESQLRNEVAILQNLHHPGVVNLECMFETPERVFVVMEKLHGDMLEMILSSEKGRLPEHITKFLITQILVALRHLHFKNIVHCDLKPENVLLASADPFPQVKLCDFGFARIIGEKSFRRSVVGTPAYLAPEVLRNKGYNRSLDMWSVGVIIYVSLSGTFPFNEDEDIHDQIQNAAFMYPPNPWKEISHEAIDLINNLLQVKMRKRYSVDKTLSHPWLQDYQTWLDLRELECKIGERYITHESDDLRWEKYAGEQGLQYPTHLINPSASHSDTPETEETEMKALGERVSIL", "test": "Kinase panel"}, "[5]": {"molecular_target": "T3, Fyn(h) (Homo sapiens, UniProt P06241)", "T3 construct": "purchased Millipore KinaseProfiler", "test": "Kinase panel"}, "[6]": {"molecular_target": "T4, Mnk2(h) (Homo sapiens, UniProt Q9HBH9)", "T4 construct": "purchased Millipore KinaseProfiler", "test": "Kinase panel"}, "[7]": {"molecular_target": "T5, Abl(Y253F)(h) (Homo sapiens, UniProt P00519, Y253F)", "T5 construct": "purchased Millipore KinaseProfiler", "test": "Kinase panel"}, "[8]": {"molecular_target": "T6, KDR(h) (Homo sapiens, UniProt P35968)", "T6 construct": "purchased Millipore KinaseProfiler", "T6 sequence (P35968 20-1356)": "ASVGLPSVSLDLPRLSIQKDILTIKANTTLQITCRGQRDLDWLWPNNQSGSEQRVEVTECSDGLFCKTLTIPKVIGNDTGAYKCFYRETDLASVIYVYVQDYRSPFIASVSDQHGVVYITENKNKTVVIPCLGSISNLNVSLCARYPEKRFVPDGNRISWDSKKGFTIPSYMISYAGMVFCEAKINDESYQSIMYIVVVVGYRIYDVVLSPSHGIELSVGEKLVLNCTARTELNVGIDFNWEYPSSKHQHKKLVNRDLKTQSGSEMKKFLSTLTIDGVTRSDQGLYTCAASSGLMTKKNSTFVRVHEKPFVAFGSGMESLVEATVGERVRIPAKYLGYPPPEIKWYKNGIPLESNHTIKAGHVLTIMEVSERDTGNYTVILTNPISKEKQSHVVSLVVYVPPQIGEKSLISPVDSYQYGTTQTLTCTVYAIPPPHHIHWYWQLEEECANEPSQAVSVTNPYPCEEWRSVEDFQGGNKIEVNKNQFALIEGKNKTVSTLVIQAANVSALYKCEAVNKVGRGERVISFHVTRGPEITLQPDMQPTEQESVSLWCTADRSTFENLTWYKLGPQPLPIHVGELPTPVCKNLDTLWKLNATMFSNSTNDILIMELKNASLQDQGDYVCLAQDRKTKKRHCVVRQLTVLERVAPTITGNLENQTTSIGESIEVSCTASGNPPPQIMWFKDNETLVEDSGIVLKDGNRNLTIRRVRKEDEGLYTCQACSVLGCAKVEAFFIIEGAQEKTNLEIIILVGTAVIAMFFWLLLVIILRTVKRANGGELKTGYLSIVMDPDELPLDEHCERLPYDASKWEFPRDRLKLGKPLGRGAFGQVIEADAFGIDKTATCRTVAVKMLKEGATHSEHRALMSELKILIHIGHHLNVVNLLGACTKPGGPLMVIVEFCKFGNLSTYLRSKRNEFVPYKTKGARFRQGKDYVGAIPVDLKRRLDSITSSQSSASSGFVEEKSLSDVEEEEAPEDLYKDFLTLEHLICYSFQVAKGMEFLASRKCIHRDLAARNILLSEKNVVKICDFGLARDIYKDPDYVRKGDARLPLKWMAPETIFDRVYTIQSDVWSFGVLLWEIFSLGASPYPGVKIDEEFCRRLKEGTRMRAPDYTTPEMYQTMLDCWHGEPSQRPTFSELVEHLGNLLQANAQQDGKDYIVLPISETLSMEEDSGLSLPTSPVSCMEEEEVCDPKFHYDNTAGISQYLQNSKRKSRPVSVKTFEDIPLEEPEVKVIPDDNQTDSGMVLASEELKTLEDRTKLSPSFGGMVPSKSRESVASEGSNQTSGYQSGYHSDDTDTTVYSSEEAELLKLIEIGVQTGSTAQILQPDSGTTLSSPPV", "test": "Kinase panel"}, "[9]": {"molecular_target": "T7, Pim-3(h) (Homo sapiens, UniProt Q86V86)", "T7 construct": "purchased Millipore KinaseProfiler", "test": "Kinase panel"}, "[10]": {"molecular_target": "PKG1α (Homo sapiens, UniProt Q13976)", "test": "Kinase IC50 assay"}, "[11]": {"molecular_target": "T8, Snk(h) (Homo sapiens, UniProt Q9NYY3)", "T8 construct": "purchased Millipore KinaseProfiler", "T8 sequence (Q9NYY3 whole entry)": "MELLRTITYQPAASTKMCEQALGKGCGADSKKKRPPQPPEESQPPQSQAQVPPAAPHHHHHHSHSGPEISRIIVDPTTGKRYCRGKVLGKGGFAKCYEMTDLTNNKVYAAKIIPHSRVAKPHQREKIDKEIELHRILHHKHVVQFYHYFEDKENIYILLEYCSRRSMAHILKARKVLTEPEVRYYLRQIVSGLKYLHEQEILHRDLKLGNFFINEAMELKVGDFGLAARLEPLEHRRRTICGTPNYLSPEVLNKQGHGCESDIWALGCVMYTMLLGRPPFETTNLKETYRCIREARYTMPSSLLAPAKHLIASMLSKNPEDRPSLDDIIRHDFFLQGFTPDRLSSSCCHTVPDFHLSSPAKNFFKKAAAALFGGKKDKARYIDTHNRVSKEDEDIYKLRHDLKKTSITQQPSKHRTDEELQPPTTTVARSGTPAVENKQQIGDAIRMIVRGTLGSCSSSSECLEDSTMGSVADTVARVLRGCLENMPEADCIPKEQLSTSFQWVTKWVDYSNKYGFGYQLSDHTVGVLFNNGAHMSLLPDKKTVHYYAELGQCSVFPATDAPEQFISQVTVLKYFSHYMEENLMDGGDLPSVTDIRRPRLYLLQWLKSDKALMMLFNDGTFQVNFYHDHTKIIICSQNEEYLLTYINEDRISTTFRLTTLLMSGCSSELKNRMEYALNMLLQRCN", "test": "Kinase panel"}, "[12]": {"molecular_target": "T9, PKCγ(h) (Homo sapiens, UniProt P05129)", "T9 construct": "purchased Millipore KinaseProfiler", "test": "Kinase panel"}, "[13]": {"molecular_target": "T10, Flt1(h) (Homo sapiens, UniProt P17948)", "T10 construct": "purchased Millipore KinaseProfiler", "test": "Kinase panel"}, "[14]": {"molecular_target": "T11, CDK9/cyclin T1(h) (Homo sapiens, UniProt P50750)", "T11 construct": "purchased Millipore KinaseProfiler", "T11 sequence (P50750 whole entry)": "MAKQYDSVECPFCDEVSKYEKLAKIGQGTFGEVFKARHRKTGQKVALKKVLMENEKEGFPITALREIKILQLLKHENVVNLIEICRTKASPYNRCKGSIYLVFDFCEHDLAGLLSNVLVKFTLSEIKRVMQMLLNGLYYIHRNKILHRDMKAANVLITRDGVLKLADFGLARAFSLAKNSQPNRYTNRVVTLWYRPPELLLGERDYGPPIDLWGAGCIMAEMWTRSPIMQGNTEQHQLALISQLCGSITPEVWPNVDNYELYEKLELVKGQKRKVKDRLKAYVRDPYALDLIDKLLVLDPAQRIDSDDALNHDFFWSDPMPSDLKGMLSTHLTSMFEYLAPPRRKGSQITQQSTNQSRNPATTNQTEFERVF", "T11 sequence (O60563 whole entry partner)": "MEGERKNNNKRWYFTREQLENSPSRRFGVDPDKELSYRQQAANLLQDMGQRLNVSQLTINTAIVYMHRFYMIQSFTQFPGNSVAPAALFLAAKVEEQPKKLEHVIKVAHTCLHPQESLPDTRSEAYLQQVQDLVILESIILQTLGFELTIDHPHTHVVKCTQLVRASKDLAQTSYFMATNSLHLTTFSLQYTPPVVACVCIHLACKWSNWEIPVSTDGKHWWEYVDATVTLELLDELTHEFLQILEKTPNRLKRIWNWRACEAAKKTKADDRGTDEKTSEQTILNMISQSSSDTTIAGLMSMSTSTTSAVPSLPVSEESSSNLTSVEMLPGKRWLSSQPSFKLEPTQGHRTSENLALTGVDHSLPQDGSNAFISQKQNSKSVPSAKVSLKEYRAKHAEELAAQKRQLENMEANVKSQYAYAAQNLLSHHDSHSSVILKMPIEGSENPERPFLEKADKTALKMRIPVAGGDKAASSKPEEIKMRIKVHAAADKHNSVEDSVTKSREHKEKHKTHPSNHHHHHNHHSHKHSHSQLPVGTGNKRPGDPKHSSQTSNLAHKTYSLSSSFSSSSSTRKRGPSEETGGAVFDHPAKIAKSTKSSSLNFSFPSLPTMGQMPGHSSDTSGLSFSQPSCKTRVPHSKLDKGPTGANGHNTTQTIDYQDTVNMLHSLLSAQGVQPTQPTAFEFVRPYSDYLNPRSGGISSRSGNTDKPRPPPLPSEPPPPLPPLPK", "test": "Kinase panel"}}, "note": "Like-named read-outs stand apart in the source and are kept apart here."}
{"smiles": "Cn1ncc(Cl)c1-c1cc(C(=O)N[C@H](CN)Cc2cccc(F)c2)sc1Cl", "note": "[GSK2110183]", "values": [{"measurement": "IC50", "setting": "[1]", "value": 510, "unit": "nM"}, {"measurement": "IC50", "setting": "[2]", "value": 210, "unit": "nM"}, {"measurement": "inhibition at 0.5 µM", "setting": "[3]", "value": -3, "unit": "%"}, {"measurement": "inhibition at 10 µM", "setting": "[3]", "value": 13, "unit": "%"}, {"measurement": "inhibition at 0.5 µM", "setting": "[4]", "value": 27, "unit": "%"}, {"measurement": "inhibition at 10 µM", "setting": "[4]", "value": 81, "unit": "%"}, {"measurement": "inhibition at 0.5 µM", "setting": "[5]", "value": -3, "unit": "%"}, {"measurement": "inhibition at 10 µM", "setting": "[5]", "value": 12, "unit": "%"}, {"measurement": "inhibition at 0.5 µM", "setting": "[6]", "value": 22, "unit": "%"}, {"measurement": "inhibition at 10 µM", "setting": "[6]", "value": 84, "unit": "%"}, {"measurement": "inhibition at 0.5 µM", "setting": "[7]", "value": 2, "unit": "%"}, {"measurement": "inhibition at 10 µM", "setting": "[7]", "value": 9, "unit": "%"}, {"measurement": "inhibition at 0.5 µM", "setting": "[8]", "value": 13, "unit": "%"}, {"measurement": "inhibition at 10 µM", "setting": "[8]", "value": 7, "unit": "%"}, {"measurement": "inhibition at 0.5 µM", "setting": "[9]", "value": -25, "unit": "%"}, {"measurement": "inhibition at 10 µM", "setting": "[9]", "value": -13, "unit": "%"}, {"measurement": "IC50", "setting": "[10]", "value": 0.9, "unit": "nM"}, {"measurement": "inhibition at 0.5 µM", "setting": "[11]", "value": -8, "unit": "%"}, {"measurement": "inhibition at 10 µM", "setting": "[11]", "value": 18, "unit": "%"}, {"measurement": "inhibition at 0.5 µM", "setting": "[12]", "value": 39, "unit": "%"}, {"measurement": "inhibition at 10 µM", "setting": "[12]", "value": 90, "unit": "%"}, {"measurement": "inhibition at 0.5 µM", "setting": "[13]", "value": -35, "unit": "%"}, {"measurement": "inhibition at 10 µM", "setting": "[13]", "value": -28, "unit": "%"}, {"measurement": "inhibition at 0.5 µM", "setting": "[14]", "value": 0, "unit": "%"}, {"measurement": "inhibition at 10 µM", "setting": "[14]", "value": 48, "unit": "%"}]}
{"smiles": "Cn1ncc(Cl)c1-c1cc(C(=O)N[C@H](CN)Cc2ccc(F)c(F)c2)oc1Cl", "note": "[GSK2141795]", "values": [{"measurement": "IC50", "setting": "[1]", "value": 64, "unit": "nM"}, {"measurement": "IC50", "setting": "[2]", "value": 49, "unit": "nM"}, {"measurement": "inhibition at 0.5 µM", "setting": "[3]; 0.5 µM, read-out: % Inhibition", "value": 4, "unit": "%"}, {"measurement": "inhibition at 10 µM", "setting": "[3]; 10 µM, read-out: % Inhibition", "value": 3, "unit": "%"}, {"measurement": "inhibition at 0.5 µM", "setting": "[4]; 0.5 µM, read-out: % Inhibition", "value": 37, "unit": "%"}, {"measurement": "inhibition at 10 µM", "setting": "[4]; 10 µM, read-out: % Inhibition", "value": 91, "unit": "%"}, {"measurement": "inhibition at 0.5 µM", "setting": "[5]; 0.5 µM, read-out: % Inhibition", "value": -8, "unit": "%"}, {"measurement": "inhibition at 10 µM", "setting": "[5]; 10 µM, read-out: % Inhibition", "value": 10, "unit": "%"}, {"measurement": "inhibition at 0.5 µM", "setting": "[6]; 0.5 µM, read-out: % Inhibition", "value": 9, "unit": "%"}, {"measurement": "inhibition at 10 µM", "setting": "[6]; 10 µM, read-out: % Inhibition", "value": 80, "unit": "%"}, {"measurement": "inhibition at 0.5 µM", "setting": "[7]; 0.5 µM, read-out: % Inhibition", "value": -18, "unit": "%"}, {"measurement": "inhibition at 10 µM", "setting": "[7]; 10 µM, read-out: % Inhibition", "value": -11, "unit": "%"}, {"measurement": "inhibition at 0.5 µM", "setting": "[8]; 0.5 µM, read-out: % Inhibition", "value": -6, "unit": "%"}, {"measurement": "inhibition at 10 µM", "setting": "[8]; 10 µM, read-out: % Inhibition", "value": -3, "unit": "%"}, {"measurement": "inhibition at 0.5 µM", "setting": "[9]; 0.5 µM, read-out: % Inhibition", "value": -10, "unit": "%"}, {"measurement": "inhibition at 10 µM", "setting": "[9]; 10 µM, read-out: % Inhibition", "value": -4, "unit": "%"}, {"measurement": "IC50", "setting": "[10]", "value": "< 1", "unit": "nM"}, {"measurement": "inhibition at 0.5 µM", "setting": "[11]; 0.5 µM, read-out: % Inhibition", "value": -12, "unit": "%"}, {"measurement": "inhibition at 10 µM", "setting": "[11]; 10 µM, read-out: % Inhibition", "value": 15, "unit": "%"}, {"measurement": "inhibition at 0.5 µM", "setting": "[12]; 0.5 µM, read-out: % Inhibition", "value": 63, "unit": "%"}, {"measurement": "inhibition at 10 µM", "setting": "[12]; 10 µM, read-out: % Inhibition", "value": 95, "unit": "%"}, {"measurement": "inhibition at 0.5 µM", "setting": "[13]; 0.5 µM, read-out: % Inhibition", "value": -4, "unit": "%"}, {"measurement": "inhibition at 10 µM", "setting": "[13]; 10 µM, read-out: % Inhibition", "value": 21, "unit": "%"}, {"measurement": "inhibition at 0.5 µM", "setting": "[14]; 0.5 µM, read-out: % Inhibition", "value": 15, "unit": "%"}, {"measurement": "inhibition at 10 µM", "setting": "[14]; 10 µM, read-out: % Inhibition", "value": 72, "unit": "%"}]}
